The term IC50 denotes the point on the concentration scale where inhibition reaches its midpoint. As usually defined, the Ki is the equilibrium dissociation constant of an inhibitor or competing ligand from its target. As a reminder, the Hill slope is a measure of the steepness of the concentration-response curve.

Like-named read-outs stand apart in the source and are kept apart here.

For data set [1], the target named is T1, A1-AdoR (Cavia porcellus, UniProt P47745).
T1 sequence (P47745 1-326): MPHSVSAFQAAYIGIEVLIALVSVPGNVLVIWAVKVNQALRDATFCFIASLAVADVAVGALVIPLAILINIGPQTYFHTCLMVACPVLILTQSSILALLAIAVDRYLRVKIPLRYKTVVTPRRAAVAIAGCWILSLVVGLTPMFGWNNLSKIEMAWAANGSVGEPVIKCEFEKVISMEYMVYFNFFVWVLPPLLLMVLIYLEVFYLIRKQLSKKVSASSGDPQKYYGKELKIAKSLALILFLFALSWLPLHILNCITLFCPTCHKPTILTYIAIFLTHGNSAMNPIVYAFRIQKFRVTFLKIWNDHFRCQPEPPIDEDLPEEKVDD
Description: 3H-CPX binding to guinea pig forebrain membranes. Conditions: for IC50: IC50 to reduce the binding of 3H-CPX. As to the method:
(§1) Membranes containing A1-AdoRs for use in radioligand binding assays were prepared from guinea pig cerebral cortex or from rat isolated epididymal adipocytes. Freshly-isolated guinea pig brain cortical tissue was homogenized in ice-cold 50 mM Tris-HCl buffer (pH 7.4) using six up and down strokes of an ice-chilled Potter-Elvejhem tissue grinder and a motor-driven teflon™ pestle. A crude membrane preparation was isolated by centrifugation of the homogenate at 15,000×g for 20 min at 4° C. The membrane pellet was resuspended in fresh Tris buffer and pelleted again by centrifugation. The final membrane pellet was suspended in Tris buffer to achieve a protein content of 1.1-1.4 mg/ml and divided into aliquots for storage at −80° C. until needed for assays. Adipocytes were isolated from 10 epididymal fat pads and suspended in a homogenization buffer (pH 7.3) containing 250 mM sucrose, 20 mM HEPES, 1 mM EDTA, 10 μg/ml leupeptin, and 5 μg/ml pepstatin. Cells were homogenized using an ice-chilled Potter-Elvehjem tissue grinder and a motor-driven teflon™ pestle. Cell membranes were separated from fat by centrifugation of the homogenate for 5 min at 1000×g at 4° C. The infranate below the fat cake was removed and placed in a centrifuge tube. Membranes were collected by centrifugation of the infranate for 30 min at 20,000×g at 4° C. Membranes were resuspended in buffer (pH 7.1 at room temperature) containing 154 mM NaCl, 10 mM MgCl2, 50 mM HEPES, 1 mM EDTA, 5 μg/ml leupeptin, 5 μg/ml pepstatin, and 5 U/ml adenosine deaminase, and stored as aliquots in liquid nitrogen until needed for assays.
(§2) The binding affinity of experimental agonists high and low affinity states of the A1-ADOR was determined. […] The presence of GTP reduces the availability of high affinity binding sites on the GPCR. Thus, the method allows for a discrimination between high and low binding affinities.
(§3) After a 3 hour incubation at room temperature. the reaction was terminated by diluting the samples with ice-cold Tris buffer and immediate collection of membranes onto glass-fiber filters (Schleicher and Schuell, Keene, N.H.) by vacuum filtration using a cell harvester (Brandel, Gaithersburg, Md.). Filters were washed quickly three times with ice-cold buffer to remove unbound radioligand. Filter discs containing trapped membranes and bound radioligand were placed in 4 ml of scintillation cocktail and radioactivity of samples was quantified using a liquid scintillation counter. […] Results of radioligand binding assays were analyzed using the Prism program from GraphPad (San Diego, Calif.).

The target in data set [2] is T2, A1-AdoR (Rattus norvegicus, UniProt P25099).
T2 sequence (P25099 1-326): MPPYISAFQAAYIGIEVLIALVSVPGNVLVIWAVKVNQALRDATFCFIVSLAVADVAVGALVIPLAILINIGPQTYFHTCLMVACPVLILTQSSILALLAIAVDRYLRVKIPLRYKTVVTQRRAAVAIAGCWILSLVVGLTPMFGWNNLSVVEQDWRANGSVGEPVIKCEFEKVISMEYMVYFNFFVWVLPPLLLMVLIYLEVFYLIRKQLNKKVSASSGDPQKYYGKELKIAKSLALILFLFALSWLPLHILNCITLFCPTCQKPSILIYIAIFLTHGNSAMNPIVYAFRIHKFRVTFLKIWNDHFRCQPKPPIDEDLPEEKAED
The experiment in a line: 3H-CPX binding to rat adipocyte membranes. Conditions: for IC50: IC50 to reduce the binding of 3H-CPX; for Ki: Ki for reduction of 3H-CPX binding. The procedure: as §1, §2, §3

Data set [3] deals with guinea pig isolated heart. The experiment in a line: Coronary conductance, isolated heart. Conditions: for EC50: Cavia porcellus; for maximal increase of coronary conductance: this study, Compound 6 at 100 μM. The procedure: Coronary perfusion pressure (CPP) was measured using a pressure transducer, connected to the aortic cannula via a T-connector positioned approximately 3 cm above the heart. Coronary perfusion pressure was monitored throughout the experiment and recorded either on a chart recorder (Gould Recorder 2200S) or a computerized recording system (PowerLab/4S, ADInstruments Pty Ltd, Australia). Only hearts with CPP ranging from 60 to 85 mmHg (in the absence of drugs) were used in the study. Coronary conductance (in ml/min/mmHg) was calculated as the ratio between coronary perfusion rate (10 ml/min) and coronary perfusion pressure.
Guinea pigs (Hartley) of either sex weighing 300-350 g were anaesthetized with methoxyflurane and killed by decapitation. The chest was cut open and the heart was removed quickly and rinsed in ice-cold modified Krebs-Henseleit (K-H) solution. The contents of the modified K-H solution were (in mM): NaCl 117.9, KCl 4.8, CaCl2 2.5, MgSO2 1.18, KH2PO4 1.2, Na2 EDTA 0.5, ascorbic acid 0.14, dextrose 5.5, pyruvic acid (sodium salt) 2.0, and NaHCO3 25. The K-H solution was continuously gassed with 95% oxygen and 5% CO2, and the pH was adjusted to a value of 7.4. To perfuse the heart by the Langendorff method, the transected aorta was slid onto a glass cannula and secured by a ligature. Retrograde perfusion of the aorta was initiated immediately at a constant flow of 10 ml min-′ with modified K-H solution warmed to 36.0±0.5° C. A side port in the cannula was used to connect the perfusion line to a Gould pressure transducer for measurement of coronary perfusion pressure. Coronary perfusion pressure was continuously recorded on a strip chart (Gould RS3400, Cleveland, Ohio) throughout each experiment. Coronary conductance (in ml min^−1 mmHg^−1) was calculated as the ratio of coronary flow (10 ml min^−1) to perfusion pressure (mm Hg). To facilitate the exit of fluid from the left ventricle, the leaflets of the mitral valve were trimmed with fine spring-handled scissors. When appropriate, hearts were paced at a constant rate using external electrodes. After completion of dissection and instrumentation (see below) for measurement of either atrial rate, stimulus-to-His bundle (S-H) interval, monophasic action potentials, or coronary perfusion pressure, each heart was allowed to equilibrate for 20-40 min before the administration of drug. Experimental interventions were always preceded and followed by control measurements. Criteria for exclusion of hearts from study were (1) a coronary perfusion pressure of less than 50 mm Hg, (2) absence of a stable coronary perfusion pressure during the equilibration period, and (3) inability to pace a heart at a constant rate throughout an experiment.

Setting [4] is: Ki for reduction of 3H-CPX binding, absence of GTP.

For `CNC(=O)OC[C@H]1OC(n2cnc3c(N[C@@H]4CCOC4)ncnc32)[C@H](O)[C@@H]1O` (stereo partly drawn) [Compound 6 of Example 2, [(5-{6-[((3R)oxolan-3-yl)amino]purin-9-yl}(3 S,2R,4R)-3,4-dihydroxyoxolan-2-yl)methoxy]-N-methylcarboxamide], the IC50 was determined as 2900 nM in data set [1] (presence of 1 mM GTP); 180 nM in data set [2] (absence of GTP); 9500 nM in data set [2] (presence of 1 mM GTP); 15000 nM in data set [2] (presence of 1 mM GTP and 0.1 mM N-ethylmaleimide). Besides, the Ki in data set [1] (setting [4]) was 1800 nM; in data set [1] (Ki for reduction of 3H-CPX binding, presence of 1 mM GTP) it was 2100 nM; in data set [2] (absence of GTP), 62 nM; in data set [2] (presence of 1 mM GTP) it was 3300 nM. Further, the Hill slope in data set [1] (absence of GTP) came out at 0.79; in data set [1] (presence of 1 mM GTP), 0.99; in data set [2] (absence of GTP) it was 0.87; in data set [2] (presence of 1 mM GTP) it was 1.0. For the same molecule, the “IC50 with GTP and N-ethylmaleimide relative to GTP alone” value in data set [2] (adipocyte membranes) is recorded as 1.6 fold. Moreover, in data set [2] (rat, adipocyte membranes), the “difference of IC50 in absence and presence of GTP” value is 53 fold. Besides, the coronary conductance in data set [3] (10 μM compound, control 0.17±0.01) is recorded as 0.185±0.01 ml min^−1 mmHg^−1; in data set [3] (100 μM compound, control 0.17±0.01), 0.26±0.02 ml min^−1 mmHg^−1. Besides, in data set [3] (estimate may be falsely low, limited solubility, read-out: concentration of half-maximal response (EC50), increase of coronary conductance), the EC50 is 31000 nM. In addition, the “effect on coronary conductance” value in data set [3] (concentrations ≦10 μM) is “did not significantly change the coronary conductance”. Also, the “maximal increase of coronary conductance” value in data set [3] is given as 0.09±0.01 ml min^−1 mmHg^−1.

On to `OC[C@H]1O[C@@H](n2cnc3c(NC4CCCC4)ncnc32)[C@H](O)[C@@H]1O` [CPA, N^6-cyclopentyladenosine, reference compound], for which the IC50 in data set [1] (absence of GTP) was found to be 2.5 nM; in data set [1] (presence of 1 mM GTP) it was 28 nM. Also, the Ki amounted to 1.7 nM in data set [1] (setting [4]); 10.4 nM in data set [1] (Ki, high affinity sites, presence of 1 mM GTP, 2-site binding model); 882 nM in data set [1] (read-out: Ki, low affinity sites, presence of 1 mM GTP, 2-site binding model). Also, the Hill slope in data set [1] (absence of GTP) amounted to 1.2; in data set [1] (presence of 1 mM GTP) it was 0.53; in data set [2] (absence of GTP), 0.88; in data set [2] (presence of 1 mM GTP) it was 1.0. Moreover, the “difference of IC50 in absence and presence of 1 mM GTP” value in data set [1] (forebrain membranes) is 11 fold. The “sites having a high affinity” value in data set [1] (presence of 1 mM GTP, 2-site binding model) amounted to 73%. The “difference of IC50 in absence and presence of GTP” value in data set [2] (adipocyte membranes) is 10 fold. In data set [3] (CPA maximal, control 0.16±0.01), this molecule came in with a coronary conductance of 0.33±0.01 ml min^−1 mmHg-^1. In addition, the EC50 in data set [3] (read-out: concentration of half-maximal increase of coronary conductance) worked out at 71 nM. The “maximal increase of coronary conductance” value in data set [3] is 0.17±0.02 ml min^−1 mmHg^−1.

Values taken from US6576620B2, “Method of identifying partial adenosine A1 receptor agonists” (CV Therapeutics, Inc., priority 1999, dated 2003).
